Measurements reported in patent US20140030289A1, “COMPOSITIONS COMPRISING BETA-CARYOPHYLLENE AND METHODS OF UTILIZING THE SAME” (priority 2011, published 2014).

Experiments:
caspase-3 [1] = test: Caspase-3 cellular activity assay, BS-24-1 cells; type: cell-based, mouse
caspase-3 [2] = test: Caspase-3 cellular activity assay, MoFir cells; type: cell-based, human
Procedure: FIG. 4. is a bar graph showing the apoptogenic effects of β-Caryophyllene on two tumor cell lines. Enzymatic activity of different cell lines incubated with β-Caryophyllene (2.4e^−4 μM) for 2 h. X axis represents the time of the enzymatic reaction in vitro in minutes.
FIG. 5. is a bar graph showing the apoptogenic effects of β-Caryophyllene on two tumor cell lines. […] Measurements were taken following 1020 min of enzymatic reaction in vitro. Pre-incubation with caspase-3 inhibitor (DEVD-CHO) eliminated any development of caspase-3 activity.
Caspase-3 cellular activity assay was carried out according to the manufacturer's instructions. For measuring specific inhibition by Ac-DEVD-CHO, cell extracts were pre-incubated with the inhibitor (0.05 μM) for 10 minutes before the addition of the substrate. […] Cellular extracts were prepared and then caspase-3 activity was measured.

[3] = target: cannabinoid receptor type-2 (Homo sapiens, UniProt P34972); conditions: background statement; cited from earlier work
[4] = test system: FB: normal human skin fibroblasts; test: DNA ladder analysis (apoptosis), normal FB cells; type: cell-based; conditions: summary statements
Procedure: FIG. 7. is a gel micrograph showing the DNA ladder effect (induction of apoptosis) of different compositions. MoFir and normal FB cells were incubated with C. gileadensis extract (2.5 μl/mL) for 24 h. DNA was separated and analyzed on agarose gel. Lane 1 and 2, ethanol based stem extract Lane 3-5, ethanol based leaf extract. Lane 6 control cells treated with ethanol (0.05%).
DNA ladder analysis was performed as previously described Ofir R. et al., (1999) (Ofir R, Zhang L-, Adams J M. Interference with gene expression induces rapid apoptosisin p53-null T lymphoma cells. Cell Death and Differentiation 1999; 6: 1216-1221).

[5] = test system: MoFir: Epstein-Barr virus transformed human B lymphocytes; test: Cell death / anti-proliferative assay (MTT/XTT) in MoFir cells; type: cell-based; conditions: 4.8e^−4 μM, 2 h
Procedure: (§1) The following cell lines were used in this study: (1) BS-24-1: mouse lymphoma cell; (2) MoFir: Epstein-Barr virus transformed human B lymphocytes generated in the laboratory by transformation of human B cell from an anonymous donor (see below); (3) FB: normal human skin fibroblasts.
To establish the MoFir cells, B cells from whole blood were prepared by Ficoll -Hypaque density gradient centrifugation. The cells were infected with the B95-8 strain of Epstein-Barr virus. RPMI medium (Biological Industries Beit Haemek) was used for cell culture. The EBV B lymphocyte cell line was maintained in RPMI supplemented with 10% FBS, 100 U/mL penicillin and […] streptomycin. The culture was maintained at 37° C. in 5% CO2 atmosphere. […]
(§2) Cell death was assessed by incubation of cells with tetrazolium salt XTT. The production of formazan can be monitored using an ELISA reader at a wavelength of 450 nm. Cytotoxicity in compound-treated culture was expressed as follows: % survival=100×(absorbance of compound-treated cell/absorbance of ethanol-treated cells).
In order to investigate whether C. gikadensis extracts had anti-proliferative effects against tumor cell lines, an MTT (3-(4,5-Dimethylthiazol-2-yl)-2,5-diphenyltetrazolium bromide) assay was used. The effect of this extract was assessed in mouse (BS-24-1) and human (MoFir) cell lines using ethanol (EtOH)-based stem extracts. […]

[6] = target: cannabinoid receptor type-1 (CB 1) (Homo sapiens, UniProt P21554); conditions: background statement; cited from earlier work
Topoisomerase I = target: T1, Topoisomerase I (Homo sapiens, UniProt P11387); test: Topoisomerase I activity; type: biochemical
T1 sequence (P11387 1-765): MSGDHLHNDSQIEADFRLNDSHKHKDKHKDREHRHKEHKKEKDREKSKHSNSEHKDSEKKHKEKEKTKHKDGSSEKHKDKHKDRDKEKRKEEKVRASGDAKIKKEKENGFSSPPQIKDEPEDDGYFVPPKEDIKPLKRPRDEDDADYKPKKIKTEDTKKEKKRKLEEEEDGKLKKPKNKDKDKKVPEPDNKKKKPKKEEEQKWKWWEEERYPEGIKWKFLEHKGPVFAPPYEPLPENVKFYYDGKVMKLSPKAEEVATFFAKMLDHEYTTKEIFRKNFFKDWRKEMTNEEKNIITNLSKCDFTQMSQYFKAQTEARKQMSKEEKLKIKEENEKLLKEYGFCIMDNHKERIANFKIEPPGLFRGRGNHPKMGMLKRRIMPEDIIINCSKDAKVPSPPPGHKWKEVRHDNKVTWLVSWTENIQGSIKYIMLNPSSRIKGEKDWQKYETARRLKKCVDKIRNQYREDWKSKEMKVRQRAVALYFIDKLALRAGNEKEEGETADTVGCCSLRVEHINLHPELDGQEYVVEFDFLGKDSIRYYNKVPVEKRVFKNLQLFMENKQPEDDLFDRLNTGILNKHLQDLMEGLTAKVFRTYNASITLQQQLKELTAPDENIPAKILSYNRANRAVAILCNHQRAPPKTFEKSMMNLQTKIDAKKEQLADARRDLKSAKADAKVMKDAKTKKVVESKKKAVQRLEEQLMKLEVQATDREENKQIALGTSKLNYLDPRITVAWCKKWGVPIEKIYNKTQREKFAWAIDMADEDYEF
Source text: Topoisomerase I introduces a nick in the DNA backbone allowing the rotation of one DNA strand around the second DNA strand. The DNA break is extremely transient and is re-ligated almost immediately. When an inhibitor of Topoisomerase I is present, it binds to the Topoisomerase I-nicked DNA complex or to the Topoisomerase I itself and this prevents the re-ligation of the nicked strand or the initial nick and rotation, respectively. Topoisomerase I and II activities are required for Epstein-Barr Virus replication.

[7] = test system: EBV-producing B95-8 cells; test: Survival of EBV-producing B95-8 cells; type: cell-based; conditions: increasing concentration
Source text: Epstein-Barr virus strain B95-8 can immortalize human B lymphocytes. B95-8 is a cell line that produces Epstein-Barr virus (EBV).

[8] = test system: BS-24-1: mouse lymphoma cell; test: Cell death / anti-proliferative assay (MTT/XTT) in BS-24-1 cells; type: cell-based; conditions: BS-24-1, 4.8e^−4 μM, 2 h
Procedure: as §1, §2
In order to investigate whether C. gikadensis extracts had anti-proliferative effects against tumor cell lines, an MTT (3-(4,5-Dimethylthiazol-2-yl)-2,5-diphenyltetrazolium bromide) assay was used. The effect of this extract was assessed in mouse (BS-24-1) and human (MoFir) cell lines using ethanol (EtOH)-based stem extracts. The concentration of cells was 1.0×10^6/mL.

Epstein-Barr virus = test: In vivo EBV animal model (humanized mouse or rabbit); conditions: 5.0, 10 or 20 mg/kg, 4 consecutive days, i.p. or within food or drinking water
Procedure: Studies evaluating the effect of C. gileadensis extract and β-caryophyllene in an in vivo animal model are performed using the humanized mouse animal model described in Sato et al., 2011 (“A novel animal model of Epstein-Barr virus-associated hemophagocytic lymphohistiocytosis in humanized mice” Blood, 2011 May 26; 117(21):5663-73, incorporated herein by reference in its entirety) or using the rabbit model described in Takashima, 2008 (“A new animal model for primary and persistent Epstein-Barr virus infection: human EBV-infected rabbit characteristics determined using sequential imaging and pathological analysis” J Med. Virol. 2008 March; 80(3):455-66, incorporated herein by reference in its entirety). C. gileadensis extract and β-caryophyllene are supplied in balanced salt solution containing 12% Tween 80 (pH 7.4) and diluted immediately before use in appropriate concentrations. Doses of 5.0, 10 or 20 mg/kg are administered for 4 consecutive days to control and EBV groups (eight animals/group) by i.p. injection of 0.1 ml per mouse or within the food or drinking water. Both C. gileadensis extract and β-caryophyllene are found to prevent EBV-induced death, viremia, leukocytosis, IFN-γ cytokinenemia, normocytic anemia, and thrombocytopenia, and increase survival time

BS-24-1 cells = test: DNA ladder analysis (apoptosis), BS-24-1 cells; type: cell-based, mouse; conditions: BS-24-1, 2-h treatment
Procedure: FIG. 6. is a gel micrograph showing the DNA ladder effect (induction of apoptosis) of different compositions. BS-24-1 cells (1,000,000/mL) were incubated with C. gileadensis stem and leaf extracts (6 μl/mL) for 17 h. DNA was separated and analyzed on agarose gel. Lanes 1-7 and 11, H2O based stem extract. Lanes 8-10, H2O based leaf extract. Lanes 12-18 and 22, ethanol based stem extract. Lanes 19-21, ethanol based leaf extract. Lanes 23 and 24 Control cells treated with ethanol (0.05%) and water.
FIG. 8. is a gel micrograph showing the DNA ladder effect (induction of apoptosis) of different compositions. BS-24-1 cells were incubated with C. gileadensis essential oil for 24 h. DNA was separated and analyzed on agarose gel. Lane 1, untreated cells with ethanol (0.05%) alone. Lane 2, cells incubation with 0.625 μl/mL essential oil. Lane 3, cells incubation with 1.25 μl/mL essential oil.
FIG. 9. is a gel micrograph showing the DNA ladder effect (induction of apoptosis) of β-Caryophyllene. Fragmentation of DNA in the presence of β-Caryophyllene. BS-24-1 cells were incubated in the presence of β-Caryophyllene in three different concentrations and two incubation time Lane 1, untreated cells with ethanol (0.05%) alone. Lane 2, cells incubated for 24 h with […] Lane 3, cells incubated for 2 h with 9.6 μM β-caryophyllene. […]

cannabinoid receptor type-1 (CB 1), sequence (P21554 whole entry, species assumed): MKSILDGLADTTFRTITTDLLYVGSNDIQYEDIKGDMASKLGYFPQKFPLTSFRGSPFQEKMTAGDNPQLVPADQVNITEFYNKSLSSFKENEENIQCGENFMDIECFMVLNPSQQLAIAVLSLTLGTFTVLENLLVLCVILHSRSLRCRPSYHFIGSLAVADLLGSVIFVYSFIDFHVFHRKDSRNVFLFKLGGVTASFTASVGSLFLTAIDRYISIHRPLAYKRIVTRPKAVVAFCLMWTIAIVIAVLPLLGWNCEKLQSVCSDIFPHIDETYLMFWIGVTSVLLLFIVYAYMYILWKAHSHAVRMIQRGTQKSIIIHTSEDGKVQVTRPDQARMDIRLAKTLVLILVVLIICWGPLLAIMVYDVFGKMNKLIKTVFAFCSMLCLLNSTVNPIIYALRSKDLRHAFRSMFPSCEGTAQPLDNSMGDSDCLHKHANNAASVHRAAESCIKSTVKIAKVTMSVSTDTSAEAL
cannabinoid receptor type-2, sequence (P34972 whole entry): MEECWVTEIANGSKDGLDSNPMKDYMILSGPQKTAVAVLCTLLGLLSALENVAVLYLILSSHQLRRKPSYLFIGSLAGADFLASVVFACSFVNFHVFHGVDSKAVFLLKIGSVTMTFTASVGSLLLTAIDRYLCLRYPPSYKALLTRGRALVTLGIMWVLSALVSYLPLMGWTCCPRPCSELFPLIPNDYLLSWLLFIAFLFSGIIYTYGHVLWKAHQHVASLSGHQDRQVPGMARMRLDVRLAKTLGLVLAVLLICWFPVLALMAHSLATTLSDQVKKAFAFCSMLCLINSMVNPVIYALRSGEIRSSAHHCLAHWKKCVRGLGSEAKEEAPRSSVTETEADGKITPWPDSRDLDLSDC

Compound	beta-caryophyllene induced increase of caspase-3 activity after inhibitor pretreatment (caspase-3 [1]; BS-24-1, pretreatment with inhibitor (0.05 μM, 10 minutes))	beta-caryophyllene induced increase of caspase-3 activity after inhibitor pretreatment (caspase-3 [2]; pretreatment with inhibitor (0.05 μM, 10 minutes))	enzymatic activity of caspase-3 (caspase-3 [1]; BS-24-1, 2.4e^−4 μM, 4 h incubation)	induction of caspase-3 enzymatic activity compared to reference compounds STS and citral (caspase-3 [1]; data not shown, cell line not stated)	binding to cannabinoid receptor type-2 [3]	apoptosis induction in normal cells (FB) [4]	cell killing [5]	binding to cannabinoid receptor type-1 (CB 1) [6]	activity of Topoisomerase I (Topoisomerase I)	survival of EBV-producing B95-8 cells [7]	cell killing [8]	enzymatic activity of caspase-3 (caspase-3 [2]; 2.4e^−4 μM)	EBV-induced death, viremia, leukocytosis, IFN-γ cytokinenemia, normocytic anemia, and thrombocytopenia (Epstein-Barr virus)	survival time (Epstein-Barr virus)	DNA ladder (DNA fragmentation) (BS-24-1 cells)
Ac-DEVD-CHO [reference compound]	blocked	blocked	–	–	–	–	–	–	–	–	–	–	–	–	–
C=C1CC/C=C(\C)CC[C@@H]2[C@@H]1CC2(C)C [Beta-caryophyllene, trans-(1R,9S)-8-Methylene-4,11,11-trimethylbicyclo[7.2.0]undec-4-ene]	–	–	activation of the enzymatic activity of caspase-3	stronger than both	selectively bind	not in normal cells	85-90%	does not bind	inhibits	decreases the survival	85-90%	activation of the enzymatic activity of caspase-3	prevent	increase	repeated
